Assay results: ChEMBL document CHEMBL3751688, “Synthesis, in vitro antimycobacterial evaluation and docking studies of some new 5,6,7,8-tetrahydropyrido[4',3':4,5]thieno[2,3-d]pyrimidin-4(3H)-one schiff bases” (Bioorg Med Chem Lett, 2016)
≈ marks a conversion by molar mass, not a printed value.

Key:
Staphylococcus aureus = test: Antibacterial activity against Staphylococcus aureus MTCC 96 after 24 hrs by broth microdilution technique; format: functional; settings: MTCC 96, 24 h
Bacillus subtilis = test: Antibacterial activity against Bacillus subtilis MTCC 441 after 24 hrs by broth microdilution technique; format: functional; settings: MTCC 441, 24 h
Escherichia coli = test: Antibacterial activity against Escherichia coli MTCC 443 after 24 hrs by broth microdilution technique; format: functional; settings: MTCC 443, 24 h
Klebsiella pneumoniae = test: Antibacterial activity against Klebsiella pneumoniae MTCC 109 after 24 hrs by broth microdilution technique; format: functional; settings: MTCC 109, 24 h
[1] = system: Mycobacterium tuberculosis; test: Antimycobacterial activity against Mycobacterium tuberculosis H37Rv at 492 uM after 3 days by luciferase reporter phage assay; format: functional; settings: 72 h
[2] = system: Mycobacterium tuberculosis; test: Antimycobacterial activity against Mycobacterium tuberculosis H37Rv after 14 days by broth microdilution method; format: functional; settings: 336 h
[3] = system: Mycobacterium tuberculosis; test: Antimycobacterial activity against Mycobacterium tuberculosis H37Rv at 246 uM after 3 days by luciferase reporter phage assay; format: functional; settings: 72 h
[4] = system: Mycobacterium tuberculosis; test: Antimycobacterial activity against Mycobacterium tuberculosis H37Rv at 123 uM after 3 days by luciferase reporter phage assay; format: functional; settings: 72 h
[5] = system: Mycobacterium tuberculosis; test: Antimycobacterial activity against Mycobacterium tuberculosis H37Rv after 21 days by broth microdilution method; format: functional; settings: 504 h
[6] = system: Mycobacterium tuberculosis; test: Antimycobacterial activity against Mycobacterium tuberculosis H37Rv at 223 uM after 3 days by luciferase reporter phage assay; format: functional; settings: 72 h
[7] = system: Mycobacterium tuberculosis; test: Antimycobacterial activity against Mycobacterium tuberculosis H37Rv at 446 uM after 3 days by luciferase reporter phage assay; format: functional; settings: 72 h
[8] = system: Mycobacterium tuberculosis; test: Antimycobacterial activity against Mycobacterium tuberculosis H37Rv at 111 uM after 3 days by luciferase reporter phage assay; format: functional; settings: 72 h
[9] = system: Mycobacterium tuberculosis; test: Antimycobacterial activity against Mycobacterium tuberculosis H37Rv at 455 uM after 3 days by luciferase reporter phage assay; format: functional; settings: 72 h
[10] = system: Mycobacterium tuberculosis; test: Antimycobacterial activity against Mycobacterium tuberculosis H37Rv at 224 uM after 3 days by luciferase reporter phage assay; format: functional; settings: 72 h
[11] = system: Mycobacterium tuberculosis; test: Antimycobacterial activity against Mycobacterium tuberculosis H37Rv at 113 uM after 3 days by luciferase reporter phage assay; format: functional; settings: 72 h
[12] = system: Mycobacterium tuberculosis; test: Antimycobacterial activity against Mycobacterium tuberculosis H37Rv at 117 uM after 3 days by luciferase reporter phage assay; format: functional; settings: 72 h
[13] = system: Mycobacterium tuberculosis; test: Antimycobacterial activity against Mycobacterium tuberculosis H37Rv at 470 uM after 3 days by luciferase reporter phage assay; format: functional; settings: 72 h
[14] = system: Mycobacterium tuberculosis; test: Antimycobacterial activity against Mycobacterium tuberculosis H37Rv at 235 uM after 3 days by luciferase reporter phage assay; format: functional; settings: 72 h
[15] = system: Mycobacterium tuberculosis; test: Antibacterial activity against Mycobacterium tuberculosis; format: functional
[16] = system: Mycobacterium tuberculosis; test: Antimycobacterial activity against Mycobacterium tuberculosis H37Rv at 232 uM after 3 days by luciferase reporter phage assay; format: functional; settings: 72 h
[17] = system: Mycobacterium tuberculosis; test: Antimycobacterial activity against Mycobacterium tuberculosis H37Rv at 465 uM after 3 days by luciferase reporter phage assay; format: functional; settings: 72 h
[18] = system: Mycobacterium tuberculosis; test: Antimycobacterial activity against Mycobacterium tuberculosis H37Rv at 116 uM after 3 days by luciferase reporter phage assay; format: functional; settings: 72 h
Pantothenate synthetase = target: T1, Pantothenate synthetase (Mycobacterium tuberculosis, UniProt P9WIL5); test: Inhibition of Mycobacterium tuberculosis pantothenate synthetase
T1 sequence (P9WIL5 whole entry): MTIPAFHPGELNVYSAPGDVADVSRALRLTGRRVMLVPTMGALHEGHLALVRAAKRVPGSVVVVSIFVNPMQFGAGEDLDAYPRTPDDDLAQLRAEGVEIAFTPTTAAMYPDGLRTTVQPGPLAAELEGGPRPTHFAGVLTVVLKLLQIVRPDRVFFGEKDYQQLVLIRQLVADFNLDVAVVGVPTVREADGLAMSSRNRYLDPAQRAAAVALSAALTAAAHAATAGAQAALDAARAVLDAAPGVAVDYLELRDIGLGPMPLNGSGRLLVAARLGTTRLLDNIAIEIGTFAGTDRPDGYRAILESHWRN

SMILES | MIC (Staphylococcus aureus) [µM] | MIC (Bacillus subtilis) [µM] | MIC (Escherichia coli) [µM] | MIC (Klebsiella pneumoniae) [µM] | MIC [2] [µM] | MIC [5] [µM] | other results
Cc1nc2sc3c(c2c(=O)n1/N=C/c1ccc(O)cc1)CCN(Cc1ccccc1)C3 | 144 (≈ 62 µg/mL) | 144 (≈ 62 µg/mL) | 144 (≈ 62 µg/mL) | 144 (≈ 62 µg/mL) |  |  | 
COc1cc(/C=N/n2c(C)nc3sc4c(c3c2=O)CCN(Cc2ccccc2)C4)cc(OC)c1OC | 248 (≈ 125 µg/mL) | 248 (≈ 125 µg/mL) | 248 (≈ 125 µg/mL) | 248 (≈ 125 µg/mL) |  |  | 
O=c1c2c3c(sc2ncn1/N=C/c1cccs1)CN(Cc1ccccc1)CC3 | 36 (≈ 14.6 µg/mL) | 150 (≈ 61 µg/mL) | 150 (≈ 61 µg/mL) | 150 (≈ 61 µg/mL) | 22 (≈ 8.94 µg/mL) | 22 (≈ 8.94 µg/mL) | inhibition at 492 µM [1]: 0%; inhibition at 246 µM [3]: 0%; inhibition at 123 µM [4]: 0%
Cc1nc2sc3c(c2c(=O)n1/N=C/c1ccco1)CCN(Cc1ccccc1)C3 | 309 (≈ 125 µg/mL) | 309 (≈ 125 µg/mL) | 309 (≈ 125 µg/mL) | 153 (≈ 61.9 µg/mL) |  |  | 
Cc1nc2sc3c(c2c(=O)n1/N=C/c1ccccc1)CCN(Cc1ccccc1)C3 | 74 (≈ 30.7 µg/mL) | 74 (≈ 30.7 µg/mL) | 74 (≈ 30.7 µg/mL) | 149 (≈ 61.8 µg/mL) |  |  | 
Cc1nc2sc3c(c2c(=O)n1/N=C/c1ccc(Cl)cc1)CCN(Cc1ccccc1)C3 | 33 (≈ 14.8 µg/mL) | 33 (≈ 14.8 µg/mL) | 15 (≈ 6.73 µg/mL) | 69 (≈ 31 µg/mL) | 8 (≈ 3.59 µg/mL) | 8 (≈ 3.59 µg/mL) | inhibition at 223 µM [6]: 40.8%; inhibition at 446 µM [7]: 99.8%; inhibition at 111 µM [8]: 29.6%
Cc1nc2sc3c(c2c(=O)n1/N=C/c1ccc(C#N)cc1)CCN(Cc1ccccc1)C3 | 34 (≈ 14.9 µg/mL) | 34 (≈ 14.9 µg/mL) | 15 (≈ 6.59 µg/mL) | 70 (≈ 30.8 µg/mL) | 20 (≈ 8.79 µg/mL) | 20 (≈ 8.79 µg/mL) | inhibition at 455 µM [9]: 9.8%; inhibition at 224 µM [10]: 6.5%; inhibition at 113 µM [11]: 0%
NNC(=O)c1ccncc1 [ISONIAZID] |  |  |  |  | 0.28 (≈ 0.0384 µg/mL) | 0.28 (≈ 0.0384 µg/mL) | 
N#Cc1ccc(/C=N/n2cnc3sc4c(c3c2=O)CCN(Cc2ccccc2)C4)cc1 | 35 (≈ 14.9 µg/mL) | 35 (≈ 14.9 µg/mL) | 16 (≈ 6.81 µg/mL) | 72 (≈ 30.6 µg/mL) | 9 (≈ 3.83 µg/mL) | 9 (≈ 3.83 µg/mL) | inhibition at 117 µM [12]: 0%; inhibition at 470 µM [13]: 69.9%; inhibition at 235 µM [14]: 9.7%
O=c1c2c3c(sc2ncn1/N=C/c1ccc(O)cc1)CN(Cc1ccccc1)CC3 | 149 (≈ 62.1 µg/mL) | 149 (≈ 62.1 µg/mL) | 149 (≈ 62.1 µg/mL) | 149 (≈ 62.1 µg/mL) |  |  | 
Cc1nc2sc3c(c2c(=O)n1/N=C/c1ccc(Cl)cc1Cl)CCN(Cc1ccccc1)C3 | 64 (≈ 30.9 µg/mL) | 15 (≈ 7.25 µg/mL) | 64 (≈ 30.9 µg/mL) | 64 (≈ 30.9 µg/mL) |  |  | 
Cc1nc2sc3c(c2c(=O)n1/N=C/c1ccccc1[N+](=O)[O-])CCN(Cc1ccccc1)C3 | 135 (≈ 62 µg/mL) | 135 (≈ 62 µg/mL) | 135 (≈ 62 µg/mL) | 135 (≈ 62 µg/mL) |  |  | 
CO[C@H]1/C=C/O[C@@]2(C)Oc3c(C)c(O)c4c(O)c(c(/C=N/N5CCN(C)CC5)c(O)c4c3C2=O)NC(=O)/C(C)=C\C=C\[C@H](C)[C@H](O)[C@@H](C)[C@@H](O)[C@@H](C)[C@H](OC(C)=O)[C@@H]1C [RIFAMPIN] |  |  |  |  | 0.09 (≈ 0.0741 µg/mL) | 0.09 (≈ 0.0741 µg/mL) | 
Cc1nc2ccccn2c1C(=O)N/N=C/c1ccc(C(F)(F)F)cc1 |  |  |  |  |  |  | MIC [15]: 9.01 µM (≈ 3.12 µg/mL)
COc1ccc(/C=N/n2c(C)nc3sc4c(c3c2=O)CCN(Cc2ccccc2)C4)cc1 | 69 (≈ 30.7 µg/mL) | 33 (≈ 14.7 µg/mL) | 33 (≈ 14.7 µg/mL) | 69 (≈ 30.7 µg/mL) |  |  | 
O=c1c2c3c(sc2ncn1/N=C/c1ccccc1)CN(Cc1ccccc1)CC3 | 77 (≈ 30.8 µg/mL) | 77 (≈ 30.8 µg/mL) | 77 (≈ 30.8 µg/mL) | 155 (≈ 62.1 µg/mL) |  |  | 
COc1cc(/C=N/n2cnc3sc4c(c3c2=O)CCN(Cc2ccccc2)C4)cc(OC)c1OC | 255 (≈ 125 µg/mL) | 255 (≈ 125 µg/mL) | 255 (≈ 125 µg/mL) | 255 (≈ 125 µg/mL) |  |  | 
CN[C@@H]1[C@H](O[C@H]2[C@H](O[C@H]3[C@H](O)[C@@H](O)[C@H](N=C(N)N)[C@@H](O)[C@@H]3N=C(N)N)O[C@@H](C)[C@]2(O)C=O)O[C@@H](CO)[C@H](O)[C@H]1O [STREPTOMYCIN] | < 1 | < 1 | < 1 | < 1 | 2 (≈ 1.16 µg/mL) | 2 (≈ 1.16 µg/mL) | 
O=c1c2c3c(sc2ncn1/N=C/c1ccc(F)cc1)CN(Cc1ccccc1)CC3 | 73 (≈ 30.6 µg/mL) | 73 (≈ 30.6 µg/mL) | 73 (≈ 30.6 µg/mL) | 147 (≈ 61.5 µg/mL) |  |  | 
O=c1c2c3c(sc2ncn1/N=C/c1ccccc1[N+](=O)[O-])CN(Cc1ccccc1)CC3 | 139 (≈ 61.9 µg/mL) | 139 (≈ 61.9 µg/mL) | 139 (≈ 61.9 µg/mL) | 139 (≈ 61.9 µg/mL) |  |  | 
CC[C@@H](CO)NCCN[C@@H](CC)CO [ETHAMBUTOL] |  |  |  |  | 4 (≈ 0.817 µg/mL) | 4 (≈ 0.817 µg/mL) | 
Cc1nc2sc3c(c2c(=O)n1/N=C/c1ccc(F)cc1)CCN(Cc1ccccc1)C3 | 71 (≈ 30.7 µg/mL) | 71 (≈ 30.7 µg/mL) | 71 (≈ 30.7 µg/mL) | 71 (≈ 30.7 µg/mL) |  |  | 
O=c1c2c3c(sc2ncn1/N=C/c1ccc(Cl)cc1Cl)CN(Cc1ccccc1)CC3 | 66 (≈ 31 µg/mL) | 32 (≈ 15 µg/mL) | 66 (≈ 31 µg/mL) | 66 (≈ 31 µg/mL) |  |  | 
O=c1c2c3c(sc2ncn1/N=C/c1ccc(Cl)cc1)CN(Cc1ccccc1)CC3 | 34 (≈ 14.8 µg/mL) | 34 (≈ 14.8 µg/mL) | 16 (≈ 6.96 µg/mL) | 71 (≈ 30.9 µg/mL) | 20 (≈ 8.7 µg/mL) | 20 (≈ 8.7 µg/mL) | 
COc1ccc(/C=N/n2cnc3sc4c(c3c2=O)CCN(Cc2ccccc2)C4)cc1 | 34 (≈ 14.6 µg/mL) | 34 (≈ 14.6 µg/mL) | 16 (≈ 6.89 µg/mL) | 72 (≈ 31 µg/mL) | 20 (≈ 8.61 µg/mL) | 20 (≈ 8.61 µg/mL) | inhibition at 232 µM [16]: 15%; inhibition at 465 µM [17]: 16.9%; inhibition at 116 µM [18]: 0%
O=c1c2c3c(sc2ncn1/N=C/c1ccco1)CN(Cc1ccccc1)CC3 | 158 (≈ 61.7 µg/mL) | 158 (≈ 61.7 µg/mL) | 158 (≈ 61.7 µg/mL) | 158 (≈ 61.7 µg/mL) |  |  | 
NC(=O)c1c(NC(=O)c2ccc([N+](=O)[O-])s2)sc2c1CCN(Cc1ccccc1)C2 |  |  |  |  |  |  | IC50 (Pantothenate synthetase): 1130 nM
Cc1nc2sc3c(c2c(=O)n1/N=C/c1cccs1)CCN(Cc1ccccc1)C3 | 297 (≈ 125 µg/mL) | 297 (≈ 125 µg/mL) | 297 (≈ 125 µg/mL) | 297 (≈ 125 µg/mL) |  |  | 
